Test [1] has as its system HBeAg (surrogate marker for cccDNA) in HepDES19 cells. As to the kind of experiment: Engineered HepDES19 primary screen assay (HBeAg ELISA). The test is classed as cell-based, HBV. Particulars: Hepatitis B virus, 120 h, HBeAg in culture supernatant, 5 days incubation, read-out: IC50 (HepDES19 primary screen assay, inhibition of extracellular HBeAg level). The essentials:
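HepDES19 cells pre-induced by Tet withdrawal for 8 days, frozen, then seeded and dosed after 24 h with half-log compound dilutions (1% DMSO final). After 5 days at 37 °C, HBeAg measured by ELISA and viability by CCK-8; IC50 from 4-parameter logistic fit.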

Test [2] has as its system HBV (HBsAg) in HBV-infected PHH. As to the kind of experiment: Cryopreserved primary human hepatocytes (PHH) HBV infection assay, extracellular HBsAg (CLIA). The test is classed as cell-based. Particulars: Hepatitis B virus, Hepatocyte, 216 h, read-out: HBsAg IC50. On the procedure: This assay is used to confirm the anti-HBV effect of the compounds in HBV PHH infection assay. Cryopreserved PHH (BioreclamationIVT, Lot YJM) was thawed at 37° C. and gently transferred into pre-warmed InVitroGRO HT medium (BioreclamationIVT, Cat. S03317). The mixture was centrifuged at 70 relative centrifugal force (RCF) for 3 minutes at RT, and the supernatant was discarded. Pre-warmed InVitroGRO CP medium (BioreclamationIVT, Cat #S03316) was added to the cell pellet to gently re-suspend cells. The cells were seeded at the density of 5.8×10^4 cells per well to collagen I coated 96-well plate (Gibco, Cat. A1142803) with the InVitroGRO CP medium. All plates were incubated at 37° C. with 5% CO2 and 85% humidity.
At 20 hours after plating, the medium was changed to PHH culture medium (Dulbecco's Modified Eagle Medium (DMEM)/F12 (1:1) (Gibco, Cat. 11320-033), 10% fetal bovine serum (Gibco Cat. 10099141), 100 U/mL penicillin, 100 μg/mL streptomycin (Gibco, Cat. 151401-122), 5 ng/mL human epidermal growth factor (Invitrogen Cat. PHG0311L), 20 ng/mL dexamethasone (Sigma, Cat. D4902) and 250 ng/mL human recombinant insulin (Gibco, Cat. 12585-014)). And the cells were incubated at 37° C. with 5% CO2 and 85% humidity for 4 hours. The medium was then changed to pre-warmed PHH culture medium containing 4% polyethylene glycol (PEG) MW8000 (Sigma, Cat. P1458-50ML) and 1% DMSO (Sigma, Cat. D2650). 5.8×10^6 genomic equivalents of HBV were added into the medium.
At 24 hours post-infection, the cells were gently washed with PBS and refreshed with PHH culture medium supplemented with 1% DMSO, and 0.25 mg/mL Matrix gel (Corning, Cat. 356237) at 200 μL per well. All plates were immediately placed in at 37° C. CO2 incubator. 24 hours later, serial dilutions of compounds made with DMSO were further diluted with the same culture medium (PHH culture medium supplemented with 1% DMSO and 0.25 mg/mL Matrix gel as described above) before they were added to the cells to reach desired final compound concentrations and 1% DMSO concentration. The medium containing the compounds were refreshed every three days.
At 9 days post-compound treatment, extracellular HBsAg level were measured with Chemiluminescence Immuno Assay (CLIA) kit (Autobio, HBsAg Quantitative CLIA). Extracellular HBV DNA was extracted by MagNA Pure 96 system (Roche) and then determined
HBsAg IC50 and HBV DNA IC50 values were derived from the dose-response curve using 4 parameter logistic curve fit method. The compounds of formula (I) have HBsAg IC50<20 μM, particularly <1 μM; and HBV DNA IC50<50 μM. Results of Cryopreserved PHH assay are given in TableBIO2.

As to `O=C(O)C(=O)NC1CC(Oc2cc(C(F)(F)F)ccc2-c2cc(=O)c3cccc(Cl)c3o2)C1` (stereo not shown) [Example 133], the IC50 was found to be 4.57 µM in test [1] and 2.8 µM in test [2].

Take `NC(=O)C(=O)NCCOc1cc(C(F)(F)F)ccc1-c1cc(=O)c2cccc(Cl)c2o1` [Example 146, N′-[2-[2-(8-chloro-4-oxo-chromen-2-yl)-5-(trifluoromethyl)phenoxy]ethyl]oxamide]: the IC50 in test [1] worked out at 0.33 µM; in test [2], 7.08 µM.

As to `NC(=O)NCCCOc1cc(C(F)(F)F)ccc1-c1cc(=O)c2cccc(Cl)c2o1` [Example 157, 3-[2-(8-chloro-4-oxo-chromen-2-yl)-5-(trifluoromethyl)phenoxy]propylurea], the IC50 in test [1] amounted to 4.15 µM; in test [2], 3.4 µM.

Turning to `NS(=O)(=O)NCCCOc1cc(C(F)(F)F)ccc1-c1cc(=O)c2cccc(Cl)c2o1` [Example 160, 8-chloro-4-oxo-2-[2-[3-(sulfamoylamino)propoxy]-4-(trifluoromethyl)phenyl]chromene], the concentration for half-maximal inhibition (IC50) was found to be 2.43 µM in test [1] and 10 µM in test [2].

With `O=C(O)[C@H]1CCN(CC(O)COc2cc(Br)ccc2-c2cc(=O)c3cccc(Cl)c3o2)C1` (stereo partly drawn) [Example 164, (3S)-1-[3-[5-bromo-2-(8-chloro-4-oxo-chromen-2-yl)phenoxy]-2-hydroxy-propyl]pyrrolidine-3-carboxylic acid], the IC50 in test [1] stood at 2.96 µM; in test [2], 9.66 µM.

As for `O=C(O)[C@@H]1CCN(CC(O)COc2cc(Br)ccc2-c2cc(=O)c3cccc(Cl)c3o2)C1` (stereo partly drawn) [Example 165, (3R)-1-[3-[5-bromo-2-(8-chloro-4-oxo-chromen-2-yl)phenoxy]-2-hydroxy-propyl]pyrrolidine-3-carboxylic acid], the figures for the IC50 in test [1] and in test [2] were 3.19 µM and 9.98 µM, respectively.

As for `O=C(O)C(=O)NCC(O)COc1cc(C(F)(F)F)ccc1-c1cc(=O)c2cccc(Cl)c2o1` (stereo not shown) [Example 166, 2-[[3-[2-(8-chloro-4-oxo-chromen-2-yl)-5-(trifluoromethyl)phenoxy]-2-hydroxy-propyl]amino]-2-oxo-acetic acid], the IC50 in test [1] is 1.57 µM; in test [2] it was 3.03 µM.

With `NC(=O)CNCCOc1cc(C(F)(F)F)ccc1-c1cc(=O)c2cccc(Cl)c2o1` [Example 167, 2-[2-[2-(8-chloro-4-oxo-chromen-2-yl)-5-(trifluoromethyl)phenoxy]ethylamino]acetamide], the IC50 in test [1] amounted to 3.3 µM; in test [2] it was 7.94 µM.

These data come from patent US20220169639A1 (priority 2018, published 2022).
